The record followed here is paper PMC9230548, “Synthesis and Biological Evaluation of Novel Synthetic Indolone Derivatives as Anti-Tumor Agents Targeting p53-MDM2 and p53-MDMX” (Molecules, 2022).

The test system of one data set is HCT116 cell line. Put plainly: MTT assay, HCT116. Format: cell-based. The settings on record: average of three determinations. The protocol:
(§1) Compounds were tested at six concentrations (0.001–100 μM).
(§2) The cells were seeded into a 96-well plate and allowed to attach overnight, after which various concentrations of test compounds or DMSO were added to the culture medium and the cells were incubated for 48 h at 37 °C in a 5% CO2 humidified incubator. Then, 20 μL of 0.5% the fresh MTT solution was added to each well. After incubation for another 4 h, the culture medium was removed and 150 μL of DMSO was added to dissolve the formazan crystals. The absorbance at 540 nm was measured using a microplate reader. The results, expressed as IC50 values, were the average of three determinations and were calculated using nonlinear regression analysis.
On the technique in general: Tetrazolium assays rely on reduction of a dye to a coloured formazan, in cell work by metabolically active cells.

For the next data set, the system named is MCF7 cell line. Put plainly: MTT assay, MCF7. Format: cell-based. As to conditions: average of three determinations. On the procedure:
as §1, §2

For another data set, the system named is A549 cell line. Put plainly: MTT assay, A549. Format: cell-based. As to conditions: average of three determinations. The protocol:
as §1, §2

A further data set addresses MDM2 (Homo sapiens, UniProt Q00987). Put plainly: fluorescence polarization assay, MDM2 binding.
The next data set concerns the target T1, MDMX (Homo sapiens, UniProt O15151).
T1 sequence (O15151 1-490): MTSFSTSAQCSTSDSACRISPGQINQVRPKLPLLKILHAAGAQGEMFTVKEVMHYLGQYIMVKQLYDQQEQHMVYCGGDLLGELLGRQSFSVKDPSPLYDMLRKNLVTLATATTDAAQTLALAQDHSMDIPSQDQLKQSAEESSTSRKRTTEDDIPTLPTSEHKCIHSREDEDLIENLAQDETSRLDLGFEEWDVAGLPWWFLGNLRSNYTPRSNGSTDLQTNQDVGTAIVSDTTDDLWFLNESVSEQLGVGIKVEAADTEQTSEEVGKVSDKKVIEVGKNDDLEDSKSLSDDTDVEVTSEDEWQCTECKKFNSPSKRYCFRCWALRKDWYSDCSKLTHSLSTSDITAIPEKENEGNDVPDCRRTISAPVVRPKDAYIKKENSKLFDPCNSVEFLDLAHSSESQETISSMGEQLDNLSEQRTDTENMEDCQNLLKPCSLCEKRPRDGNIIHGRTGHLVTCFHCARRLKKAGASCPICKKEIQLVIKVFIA
Put plainly: fluorescence polarization assay, MDMX binding.

Data set [1] relates to HCT116 cells with wild type p53. Put plainly: Western blotting of p53, MDM2 and MDMX levels. Format: cell-based. As to conditions: HCT116 cells, 0, 5, 10 and 20 μM, 48 h, Western blot. The protocol:
The dual inhibition of the p53-MDM2 and p53-MDMX interactions is expected to activate p53, increasing its level in the cells with wild-type p53. In addition, p53 activation can also result in an increase in the levels of the MDM2 and MDMX proteins. To verify these predictions, Western blotting was used to assess the effects of compound A13 in the HCT 116 cells. The cells were treated with compound A13 for 48 h. Subsequently, the cells were lysed and protein extracts were analyzed for the levels of p53, MDM2, and MDMX.
The HCT116 cells with wild type p53 were treated with compound A13 (0, 5, 10, and 20 μM) for 48 h. The cells were harvested and lysed with RIPA buffer (Sigma, St. Louis, […], USA) supplemented with a protease inhibitor cocktail (Sigma), followed by centrifugation at 12,000× g for 10 min. The supernatants were heated to 100 °C with loading buffer and the total protein concentrations were determined using a Bio-Rad protein assay. Protein samples were subjected to SDS-PAGE and transferred to a PVDF membrane. The membrane was blocked with 5% non-fat milk, and then incubated with the corresponding primary antibody (MDM2, MDMX, p53, and GAPDH) at 4 °C overnight. After binding with an appropriate secondary antibody conjugated with peroxidase, proteins were visualized using the ECL chemiluminescence system. GAPDH was used as a loading control.

[2] abbreviates: read-out: Ki (μM) ± SD MDM2, fluorescence polarization, PMDM-F peptide, pH 7.5.
Where [3] appears, read: read-out: Ki (μM) ± SD MDMX, fluorescence polarization, PMDM-F peptide, pH 7.5.

Where two headings read alike, the source gives them in different places.

Chain of MDM2 (Q00987 whole entry): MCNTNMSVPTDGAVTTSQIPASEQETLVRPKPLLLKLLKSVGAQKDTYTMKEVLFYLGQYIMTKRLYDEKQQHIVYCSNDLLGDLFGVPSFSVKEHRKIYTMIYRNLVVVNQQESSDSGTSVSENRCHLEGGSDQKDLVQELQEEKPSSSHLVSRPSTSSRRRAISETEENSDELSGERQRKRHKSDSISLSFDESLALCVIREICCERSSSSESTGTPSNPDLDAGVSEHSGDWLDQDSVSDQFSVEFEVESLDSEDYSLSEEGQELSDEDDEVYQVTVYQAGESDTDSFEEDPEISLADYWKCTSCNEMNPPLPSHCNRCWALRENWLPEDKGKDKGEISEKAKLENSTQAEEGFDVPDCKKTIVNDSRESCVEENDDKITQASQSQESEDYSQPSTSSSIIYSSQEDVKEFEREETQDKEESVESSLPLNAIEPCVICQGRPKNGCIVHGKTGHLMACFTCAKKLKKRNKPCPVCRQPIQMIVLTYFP

The term IC50 denotes the midpoint of a concentration-inhibition curve. For orientation: Ki means a measure of affinity in units of concentration, obtained from inhibition or displacement. For `O=C1/C(=C/c2ccccc2Cl)c2ccccc2N1S(=O)(=O)c1cccc(Cl)c1` [Compound A6, (E)-3-(2-chlorobenzylidene)-1-((3-chlorophenyl)sulfonyl)indolin-2-one], the IC50 in the data set with HCT116 cell line (Homo sapiens, HCT-116, 48 h) is 10.7 ± 1.47 µM; in the data set on MCF7 cell line (Homo sapiens, MCF7, 48 h), 25.5 ± 3.61 µM; in the data set with A549 cell line (Homo sapiens, A549, 48 h), 18.7 ± 2.49 µM. Besides, the Ki at MDM2 was 0.92 ± 0.11 µM; at MDMX it was 17.4 ± 2.78 µM.

By melting point is commonly meant the temperature, or range, at which the solid turns liquid. Molecule `O=C1/C(=C/c2cccc(Cl)c2)c2ccccc2N1S(=O)(=O)c1ccccc1Cl` [Compound A12, (E)-3-(3-chlorobenzylidene)-1-((2-chlorophenyl)sulfonyl)indolin-2-one] displayed a melting point of 125.1 to 126.3 °C. In the data set with HCT116 cell line (Homo sapiens, HCT-116, 48 h), this molecule registered an IC50 of 15.4 ± 4.61 µM. The same molecule yielded an IC50 with MCF7 cell line (Homo sapiens, MCF7, 48 h) of 24.7 ± 2.53 µM. The molecule also showed an IC50 in the data set on A549 cell line (Homo sapiens, A549, 48 h) of 17.8 ± 2.19 µM. This molecule also registered a Ki on MDM2 of 0.19 ± 0.05 µM. In addition, the Ki on MDMX was found to be 20.8 ± 2.01 µM.

For `O=C1/C(=C/c2cccc(Cl)c2)c2ccccc2N1S(=O)(=O)c1cccc(Cl)c1` [Compound A13, (E)-3-(3-chlorobenzylidene)-1-((3-chlorophenyl)sulfonyl)indolin-2-one], the IC50 was determined as 6.17 ± 0.93 µM in the data set with HCT116 cell line (Homo sapiens, HCT-116, 48 h); 11.2 ± 1.95 µM in the data set on MCF7 cell line (Homo sapiens, MCF7, 48 h); 12.5 ± 2.01 µM in the data set with A549 cell line (Homo sapiens, A549, 48 h). In addition, in data set [1], the “expression of MDM2” value is “induced in a dose-dependent manner”. For the same molecule, in data set [1], the “expression of MDMX” value is on record as “induced in a dose-dependent manner”. Also, in data set [1], the “level of p53 proteins” value is “dose-dependent increase”. Further, the Ki came out at 0.031 ± 0.007 µM at MDM2 and 7.24 ± 0.78 µM on MDMX.

For the molecule `O=C1/C(=C/c2cccc(Cl)c2)c2ccccc2N1S(=O)(=O)c1ccc(Cl)cc1` [Compound A14, (E)-3-(3-chlorobenzylidene)-1-((4-chlorophenyl)sulfonyl)indolin-2-one], the melting point was in the range of 137.5 to 139.6 °C. This molecule also showed an IC50 in the data set on HCT116 cell line (Homo sapiens, HCT-116, 48 h) of 15.2 ± 3.14 µM. In the data set with MCF7 cell line (Homo sapiens, MCF7, 48 h), this molecule showed a 50% inhibitory concentration (IC50) of 20.2 ± 2.86 µM. In the data set with A549 cell line (Homo sapiens, A549, 48 h), this molecule had an IC50 of 20.3 ± 2.49 µM. Further, the inhibition constant (Ki) on MDM2 (setting [2]) came out at 0.082 ± 0.021 µM. Moreover, the inhibition constant Ki on MDMX (setting [3]) worked out at 18.2 ± 1.39 µM.

As to `O=C1/C(=C/c2cccc(Cl)c2)c2ccccc2N1S(=O)(=O)c1ccccc1Br` [Compound A15], the IC50 with HCT116 cell line (48 h) was found to be 23.8 ± 2.69 µM; with MCF7 cell line (48 h) it was 31.1 ± 3.55 µM; in the data set with A549 cell line (48 h), 29.1 ± 3.31 µM. Moreover, the inhibition constant (Ki) on MDM2 (setting [2]) amounted to 0.34 ± 0.12 µM; on MDMX (setting [3]), 24.4 ± 2.57 µM.

For `O=C1/C(=C/c2cccc(Cl)c2)c2ccccc2N1S(=O)(=O)c1cccc(Br)c1` [Compound A16], the IC50 worked out at 21.7 ± 2.59 µM with HCT116 cell line (48 h), 26.5 ± 3.4 µM in the data set on MCF7 cell line (48 h) and 25.4 ± 3.62 µM in the data set on A549 cell line (48 h). Also, the Ki turned out to be 0.079 ± 0.005 µM on MDM2 (setting [2]) and 16.2 ± 1.94 µM on MDMX (setting [3]).

For the molecule `O=C1/C(=C/c2cccc(Cl)c2)c2ccccc2N1S(=O)(=O)c1ccc(Br)cc1` [Compound A17], the IC50 in the data set on HCT116 cell line (48 h) was found to be 25.5 ± 3.26 µM; in the data set on MCF7 cell line (48 h), 37.7 ± 3.65 µM; in the data set on A549 cell line (48 h), 34.2 ± 3.39 µM. Besides, the inhibition constant (Ki) on MDM2 (setting [2]) is 0.49 ± 0.15 µM; at MDMX (setting [3]) it was 43.2 ± 4.95 µM.

Consider `O=C1/C(=C/c2cccc(Cl)c2)c2ccccc2N1S(=O)(=O)c1ccccc1F` [Compound A18, (E)-3-(3-chlorobenzylidene)-1-((2-fluorophenyl)sulfonyl)indolin-2-one], for which the IC50 in the data set on HCT116 cell line (Homo sapiens, HCT-116, 48 h) turned out to be 17.9 ± 2.11 µM; in the data set with MCF7 cell line (Homo sapiens, MCF7, 48 h) it was 24.7 ± 3.63 µM; with A549 cell line (Homo sapiens, A549, 48 h), 22.6 ± 2.93 µM. In addition, the Ki on MDM2 worked out at 0.17 ± 0.03 µM; at MDMX it was 17.7 ± 2.16 µM.

As to `O=C1/C(=C/c2cccc(Cl)c2)c2ccccc2N1S(=O)(=O)c1cccc(F)c1` [Compound A19, (E)-3-(3-chlorobenzylidene)-1-((3-fluorophenyl)sulfonyl)indolin-2-one], the IC50 in the data set with HCT116 cell line (Homo sapiens, HCT-116, 48 h) worked out at 10.2 ± 1.37 µM; in the data set with MCF7 cell line (Homo sapiens, MCF7, 48 h), 21 ± 2.58 µM; with A549 cell line (Homo sapiens, A549, 48 h), 16.3 ± 1.82 µM. For the same molecule, the Ki at MDM2 was 0.076 ± 0.005 µM; on MDMX it was 16.9 ± 1.74 µM.

The molecule `O=C1/C(=C/c2cccc(Cl)c2)c2ccccc2N1S(=O)(=O)c1ccc(F)cc1` [Compound A20, (E)-3-(3-chlorobenzylidene)-1-((4-fluorophenyl)sulfonyl)indolin-2-one] registered a melting point of 141.7 to 143.1 °C. Moreover, in the data set with HCT116 cell line (Homo sapiens, HCT-116, 48 h), half-maximal inhibition (IC50) was put at 16.3 ± 2.73 µM. In addition, inhibition in the data set with MCF7 cell line (Homo sapiens, MCF7, 48 h) was half-maximal at 27.2 ± 2.83 µM (IC50). In addition, the IC50 in the data set on A549 cell line (Homo sapiens, A549, 48 h) came to 22.2 ± 2.13 µM. The molecule also showed a Ki at MDM2 of 0.23 ± 0.02 µM. Also, the affinity on MDMX corresponds to a Ki of 29.2 ± 3.51 µM.

Regarding `O=C1/C(=C/c2cccc(Cl)c2)c2ccccc2N1S(=O)(=O)c1cccc(C(F)(F)F)c1` [Compound A21, (E)-3-(3-chlorobenzylidene)-1-((3-(trifluoromethyl)phenyl)sulfonyl)indolin-2-one], the IC50 with HCT116 cell line (Homo sapiens, HCT-116, 48 h) turned out to be 8.91 ± 1.35 µM; in the data set with MCF7 cell line (Homo sapiens, MCF7, 48 h) it was 15.7 ± 2.04 µM; with A549 cell line (Homo sapiens, A549, 48 h), 13.5 ± 2.73 µM. The Ki was found to be 0.092 ± 0.007 µM at MDM2 and 19.3 ± 2.69 µM at MDMX.

Turning to `O=C1/C(=C/c2ccc(Cl)cc2)c2ccccc2N1S(=O)(=O)c1cccc(Cl)c1` [Compound A27, (E)-3-(4-chlorobenzylidene)-1-((3-chlorophenyl)sulfonyl)indolin-2-one], the melting point is 184.8 to 185.6 °C. The same molecule came in with an IC50 in the data set on HCT116 cell line (Homo sapiens, HCT-116, 48 h) of 17.5 ± 1.53 µM. The IC50 in the data set with MCF7 cell line (Homo sapiens, MCF7, 48 h) was 27.6 ± 3.81 µM. Moreover, in the data set with A549 cell line (Homo sapiens, A549, 48 h), half-maximal inhibition (IC50) was put at 20.4 ± 1.98 µM. Moreover, the Ki on MDM2 (setting [2]) is 0.31 ± 0.03 µM. Also, the Ki on MDMX (setting [3]) is 17.3 ± 1.91 µM.

`O=C1/C(=C/c2cccc(Cl)c2)c2cc(Cl)ccc2N1S(=O)(=O)c1cccc(Cl)c1` [Compound A29, (E)-5-chloro-3-(3-chlorobenzylidene)-1-((3-chlorophenyl)sulfonyl)indolin-2-one] came in with a melting point of 177.8 to 178.7 °C. Also, in the data set with HCT116 cell line (Homo sapiens, HCT-116, 48 h), the IC50 is 17 ± 2.37 µM. In addition, in the data set with MCF7 cell line (Homo sapiens, MCF7, 48 h), the midpoint of inhibition, the IC50, lay at 27.4 ± 3.37 µM. The IC50 with A549 cell line (Homo sapiens, A549, 48 h) turned out to be 26.4 ± 4.05 µM. At MDM2 (setting [2]), the Ki worked out at 0.28 ± 0.04 µM. For the same molecule, at MDMX (setting [3]), the inhibition constant Ki was 32.2 ± 3.24 µM.

On to `COc1ccc(C2=N[C@@H](c3ccc(Cl)cc3)[C@@H](c3ccc(Cl)cc3)N2C(=O)N2CCNC(=O)C2)c(OC(C)C)c1` [Nutlin-3a, reference compound], for which the IC50 was found to be 18.1 ± 2.17 µM in the data set on HCT116 cell line (48 h), 32.2 ± 1.49 µM in the data set with MCF7 cell line (48 h) and 21.7 ± 2.04 µM in the data set with A549 cell line (48 h).
